Values of other authors in publication PMC11510164 (Pharmaceuticals, 2024).

Test system: not given
Conditions: 25 °C

water solubility | Compound
10 to 20 mg/L | Cc1cccc(Nc2ccccc2C(=O)O)c1C [MFA, Mefenamic acid, reference compound]

Same assay, conditions: pure component (ChCl: solid); ref per cell: 90, 123, 125, 126, 127, 129, 137, 139

Density (g/cm^3) | Density | Compound
0.85 [126] g/cm^3 |  | CCCCCCCCCCCCCC(=O)OC(C)C [IPM, Isoporpyl miristate]
0.84 [126] g/cm^3 |  | C=C(C)[C@H]1CC=C(C)CC1 [Lim, (R)-(+)-limonene]
1.25 [129] g/cm^3 |  | C[C@H](O)C(=O)O [Lac, L-lactic acid]
1.03 [123] g/cm^3 |  | CC(C)Cc1ccc(C(C)C(=O)O)cc1 (stereo not shown) [IBU, Ibuprofen, reference compound]
1.04 [126] g/cm^3 |  | CC(O)CO (stereo not shown) [PG, Propylene glycol]
1.50 [137] g/cm^3 |  | OC[C@@H](O)[C@H](O)[C@@H](O)CO [Xyl, Xylitol]
1.66 [126] g/cm^3 |  | N[C@@H](CS)C(=O)O [Cys, L-Cysteine]
0.89 [126] g/cm^3 |  | CCCCCCCCCC(=O)O [Dec, Decanoic acid (capric acid)]
1.90 [126] g/cm^3 |  | O=C(O)C(=O)O [Oxa, Oxalic acid]
1.5620 [126] g/cm^3 |  | OC[C@H]1O[C@H](O)[C@H](O)[C@@H](O)[C@@H]1O [Glu, D-(+)-glucose]
1.26 [129] g/cm^3 |  | OCC(O)CO [Gly, Glycerol]
1.26 [126] g/cm^3 |  | O=C(O)CO [Gla, Glycolic acid]
1.60 [126] g/cm^3 |  | OC[C@H]1OC(O)(CO)[C@@H](O)[C@@H]1O (stereo partly drawn) [Fru, D-(−)-fructose]
 | ~1.205 g/mL | C[N+](C)(C)CCO [ChCl, Choline chloride]
0.89 [126] g/cm^3 |  | CCCCCCCC/C=C\CCCCCCCC(=O)O [OLA, Oleic acid]
1.20 [125] g/cm^3 |  | Cc1cccc(Nc2ccccc2C(=O)O)c1C [MFA, Mefenamic acid, reference compound]
1.47 [129] g/cm^3 |  | OC[C@@H](O)[C@@H](O)[C@H](O)[C@@H](O)CO [Sor, D-(−)-sorbitol]

Compound | Density (g/cm^3) | Density
N=C(N)NCCC[C@H](N)C(=O)O [Arg, L-Arginine] | 1.42 [126] g/cm^3 | 
CC1CCC(C(C)C)C(O)C1 (racemic) [MNT, (±)-menthol] | 0.89 [90] g/cm^3 | 

Same assay, conditions: sol. 70%

Density | Compound
~1.1 g/mL | C[N+](C)(C)CCO [ChCl, Choline chloride]

Test system: rats
Conditions: rat, in vivo, po

Compound | LD50
CC1CCC(C(C)C)C(O)C1 (racemic) [MNT, (±)-menthol] | 3000 mg/kg
